Measured values from US9983196B2, “Compositions and methods for optimizing drug hydrophobicity and drug delivery to cells” (Bioelastics, Inc., priority 2009, dated 2018).
Like-named read-outs stand apart in the source and are kept apart here. Values belong to the substance of their own block, whether it stands above or below them.

Columns and labels:
[1] = cited from earlier work; for Tt: guest residue χ in poly[fχ(GχGVP),fv(GVGVP)], extrapolated to fχ=1, some cells marked (Tt); for Tt linearly extrapolated to fX = 1: poly[fV(VPGVG),fX(VPGXG)]; for Tt (data within parentheses): microbial preparations of poly(30 mers) (GVGVP GVGVP GχGVP GVGVP GVGVP GVGVP)n, n ≈ 40
[2] = cited from earlier work; for ΔG°HA(GχGVP) (from graph): Tt used to obtain value from experimental sigmoid curve of Tt versus ΔG°HA; for ΔG°HA(GχGVP): reference GGGVP = 0; for ΔG°HA(GχGVP) (data within parentheses): microbial preparations of poly(30 mers), n ≈ 40
[3] = acid-base titration of elastic-contractile model proteins (pKa shift, Hill plot); assay type: physicochemical; conditions: for ΔGap / ΔpKa: chemically-synthesized negatively-charged polymers of FIG. 3
[4] = controlled release of charged drug from oppositely charged ECMP; assay type: physicochemical; conditions: release of Leu-enkephalin amide (LEA+); for zero order release level per day: after burst release, constant surface area
Excerpt: For controlled release of pharmaceuticals, positively charged drugs packaged in negatively charged ECMP result in zero-order release. Once the rate of drug release and its ΔGap have been determined for one member of a related family of ECMP, the release rates for another member of the family can be calculated from the acid-base titration data. […] Thus, the thermodynamics of model protein hydration can be determined for a designed ECMP with a known release rate and used to calculate the release rates of a drug from a related ECMP for which only the acid-base titration data has been determined.
FIG. 3 is a plot showing controlled release of positively charged Leu-enkephalin amide (H+-Tyr-Gly-Gly-Phe-Leu-NH2, (SEQ ID NO:6), LEA+) using chemically-synthesized, negatively-charged polymers with designed increases in hydrophobicity giving ΔpKa values of 0.9, 1.3, and 2.2 and ΔGap values of 1.2, 1.8, and 3.0 kcal/mol-E, respectively. After burst release due to 50% excess drug over polymer sites, a constant surface area maintains zero order release levels per day continuing at 4.7 μmole for 25 days, 2.7 μmole for 30 days, and 1.9 μmole for 70 days, respectively. The amino acid sequences from top to bottom are: SEQ ID NO:12, SEQ ID NO:13 and SEQ ID NO:14.
FIG. 5 is a pair of graphs of release profiles showing lower rates of drug release as n of nF increases, that is, as increasing numbers of Val (V) residues are replaced by Phe (F) residues using the series of Lys(K)/Phe(F)-containing model proteins of Table 3 with Φ=K. As the negatively-charged drug is added to the soluble positively-charged model protein phase separation occurs. Drug is added to a 50% excess, which is responsible for the burst release. A. Dexamethasone-phosphate release curves and B. Betamethasone-phosphate release curves.

[5] = Φ = E (glutamic acid, —COOH), cited from earlier work; for (∂ΔG/∂α) slope: from Hill plot; for ΔGgp (pKa shift): unperturbed pKa taken as 4.0
[6] = differential scanning calorimetry of the inverse temperature transition: ΔGHA-based hydrophobicity scale; assay type: physicochemical
Excerpt: Described herein is a hydrophobicity scale based on the change in Gibbs free energy of hydrophobic association. Increase in entropy of water drives endothermic phase transition of hydrophobic association. For a narrow phase transition the chemical potential, t, of the molecules in the phase separated, hydrophobically associated state, 1.IHA, and the solution, hydrophobically dissociated state, 1.1HD, are equal. Therefore, at constant temperature and pressure, i.e., at equilibrium, the change in Gibbs free energy for the phase transition is zero, (ΔGt)TP=0 and ΔHT=TtΔSt. For the breadth of the transition of elastic-contractile model proteins [ECMP], it is written: ΔHt≈TtΔSt, (1) i.e., the heat of the transition, ΔHt in kcal/mol, is approximated by the product of the temperature of the transition, Tt in ° K, times the entropy change attending the transition, ΔSt in kcal/° K-mol.
The van der Walls interaction is exothermic for the hydrophobic association attending the ITT, yet the ITT is endothermic. […] The derivation of the change in Gibbs free energy for hydrophobic association, ΔGHA, and evaluation by inverse temperature transition of hydrophobic association has been reported previously (D. W. Urry, The Change in Gibbs Free Energy for Hydrophobic Association Derivation and Evaluation by means of Inverse Temperature Transitions. Chem. Phys. Letters 399 (2004) 177-183.), and is given more simply below. […]
Given the above approximation, but also recognizing that ASt is a calculated result from the differential scanning calorimetric measurement of ΔHt, we define the change in Gibbs free energy for hydrophobic association, ΔGHA, as,
The differential scanning calorimetry (DSC) data of ΔHt(GVGVP) (SEQ ID NO:4) and ΔHt(GVGIP) (SEQ ID NO:8) in FIG. 1 of Luan and Urry, J Phys Chem 95:7896-7900, 1991 provide a specific example of the difference that defines ΔGHA. […] This is the same value of 1.5 kcal/mol-CH2 for the addition of a single CH2 as determined by Butler for the alcohol series.
Once the values are determined by difference with ΔHt(GVGVP) (SEQ ID NO:4) as represented in FIG. 1E, they are translated so the reference polymer is taken as (GGGVP (SEQ ID NO:11), as this residue is considered to be close to neutral, being neither polar nor apolar. For use of (GGGVP) (SEQ ID NO:11) as the reference, i.e., ΔHt(GGGVP) (SEQ ID NO:11)=AHt(ref), in Table 3 and FIG. 13, the change in Gibbs free energy for hydrophobic association is indicated as ΔG^oHA, i.e., […]
In this case most of the ΔG^oHA values have been obtained by taking the experimental Tt, suitably extrapolated to fx=1 to obtain Tt, and reading the value of ΔG^oHA from the sigmoid curve of FIG. 13. […]

Substance: Asp(COO−) [D−: Asp(COO−)]
Tt [1]: 170 (Tt) ° C.
ΔG°HA(GχGVP) (from graph) [2]: ≈+3.4 (from graph) kcal/mol-pentamer

Substance: Trp [W: Trp]
Tt [1]: −105 °C
ΔG°HA(GχGVP) ([2]; DSC): −7.00 kcal/mol-pentamer

Substance: His° [H°: His°]
Tt [1]: −10 (Tt) ° C.
ΔG°HA(GχGVP) (from graph) [2]: −4.80 (from graph) kcal/mol-pentamer

Substance: (GFGFPGEGFPGFGFPGFGFPGEGFPGFGFP)n (GFGFPGEGFPGFGFP) [ECMP2E/10F]
pK of the carboxylate [3]: ~6.2
ΔGap [3]: 3.0 kcal/mol-E
ΔpKa [3]: 2.2
duration of zero order release [4]: 70 days
zero order release level per day [4]: 1.9 µmol

Substance: Ser [S: Ser]
Tt [1]: 60 °C
ΔG°HA(GχGVP) ([2]; DSC): +0.55 kcal/mol-pentamer

Substance: Tyr [Y: Tyr]
Tt [1]: −75 °C
ΔG°HA(GχGVP) ([2]; DSC): −5.85 kcal/mol-pentamer

Substance: Gly [G: Gly]
Tt [1]: 55 °C
ΔG°HA(GχGVP) ([2]; DSC): 0.00 kcal/mol-pentamer

Substance: SEQ ID NO:13: chemically-synthesized, negatively-charged polymer of FIG. 3, middle sequence (GEGVPGVGVPGVGFPGFGFPGVGVPGVGVP)
ΔGap [3]: 1.8 kcal/mol-E
ΔpKa [3]: 1.3
duration of zero order release [4]: 30 days
zero order release level per day [4]: 2.7 µmol

Substance: Cys [C: Cys]
Tt [1]: 30 (Tt) ° C.
ΔG°HA(GχGVP) (from graph) [2]: −1.90 (from graph) kcal/mol-pentamer

Substance: SEQ ID NO:12: chemically-synthesized, negatively-charged polymer of FIG. 3, top sequence, least hydrophobic (GVGFPGEGFPGVGVP)
ΔGap [3]: 1.2 kcal/mol-E
ΔpKa [3]: 0.9
duration of zero order release [4]: 25 days
zero order release level per day [4]: 4.7 µmol

Substance: [GVGVP GVGFP GΦGFP GVGVP GVGVP GVGVP]n(GVGVP) (GVGVPGVGFPGGFPGVGVPGVGVPGVGVPGVGVP) [E/2F]
(∂ΔG/∂α) slope [5]: 1.3 kcal/mol
ΔGgp (pKa shift) [5]: 1.0 kcal/mol

Substance: [GVGVP GVGFP GΦGFP GVGVP GVGFP GVGFP]n(GVGVP) (GVGVPGVGFPGGFPGVGVPGVGFPGVGFPGVGVP) [E/4F]
(∂ΔG/∂α) slope [5]: 2.2 kcal/mol
ΔGgp (pKa shift) [5]: 2.2 kcal/mol

Substance: Tyr(ϕ-O−) [Y−: Tyr(ϕ-O−)]
Tt [1]: 140 °C
ΔG°HA(GχGVP) ([2]; DSC): +1.95 kcal/mol-pentamer

Substance: Thr [T: Thr]
Tt [1]: 60 °C
ΔG°HA(GχGVP) ([2]; DSC): −0.60 kcal/mol-pentamer

contribution to change in Gibbs free energy for hydrophobic association on phosphorylation of Ser [6]: about +8 kcal/mol
Substance: Ser (PO4^−2)
Tt [1]: 860 (Tt) ° C.
Tt linearly extrapolated to fX = 1 ([1]; 40 mg/ml polymer, 0.15N NaCl, 0.01M phosphate pH 7.4): 860 °C
ΔG°HA(GχGVP) (from graph) [2]: ≈+8.0 (from graph) kcal/mol-pentamer
ΔG°HA from FIG. 13 ([2]; gross estimates (±0.5 kcal/mol) from Tt and curve, 40 mg/ml polymer, 0.15N NaCl, 0.01M phosphate pH 7.4): +8.0 kcal/mol

Substance: [GVGVP GVGFP GΦGFP GVGVP GVGFP GFGFP]n(GVGVP) (GVGVPGVGFPGGFPGVGVPGVGFPGFGFPGVGVP) [E/5F]
(∂ΔG/∂α) slope [5]: 3.0 kcal/mol
ΔGgp (pKa shift) [5]: 3.1 kcal/mol

Substance: Gln [Q: Gln]
Tt [1]: 70 °C
ΔG°HA(GχGVP) ([2]; DSC): +0.75 kcal/mol-pentamer

Substance: Lys(NH2) [K°: Lys(NH2)]
Tt [1]: 40 °C
Tt (data within parentheses) [1]: 38 °C
ΔG°HA(GχGVP) ([2]; DSC): −0.05 kcal/mol-pentamer
ΔG°HA(GχGVP) (data within parentheses) [2]: −0.60 kcal/mol-pentamer

Substance: Glu(COOH) [E°: Glu(COOH)]
Tt [1]: 20 °C
Tt (data within parentheses) [1]: 2 °C
ΔG°HA(GχGVP) ([2]; DSC): −1.30 kcal/mol-pentamer
ΔG°HA(GχGVP) (data within parentheses) [2]: −1.50 kcal/mol-pentamer

Substance: Asn [N: Asn]
Tt [1]: 50 °C
ΔG°HA(GχGVP) ([2]; DSC): −0.05 kcal/mol-pentamer

ΔGHA of ionization (neutral versus charged residue) ([6]; from Table 1): 3.5 kcal/mol-pentamer
Substance: Lys(NH3+) [K+: Lys(NH3+)]
Tt (data within parentheses) [1]: (104) ° C.
ΔG°HA(GχGVP) (data within parentheses) [2]: (+2.94) kcal/mol-pentamer

Substance: Val [V: Val]
Tt [1]: 26 °C
ΔG°HA(GχGVP) ([2]; DSC): −2.50 kcal/mol-pentamer

Substance: N-methyl-6-OH 1,4,5,6-tetrahydronicotinamide [Lys (6-OH tetrahydro NMeN)]
Tt linearly extrapolated to fX = 1 ([1]; 5.0 mg/ml polymer, 0.1M potassium bicarbonate pH 9.5, 0.1M KCl): 15 °C
ΔG°HA from FIG. 13 ([2]; gross estimates from Tt and curve, 5.0 mg/ml polymer, 0.1M potassium bicarbonate pH 9.5, 0.1M KCl): -3.5 kcal/mol

Substance: Met [M: Met]
Tt [1]: 15 °C
ΔG°HA(GχGVP) ([2]; DSC): −1.50 kcal/mol-pentamer

Substance: [GVGVP GVGVP GΦGVP GVGVP GVGFP GFGFP]n(GVGVP) (GVGVPGVGVPGGVPGVGVPGVGFPGFGFPGVGVP) [E/3F]
(∂ΔG/∂α) slope [5]: 1.7 kcal/mol
ΔGgp (pKa shift) [5]: 1.6 kcal/mol

Substance: Phe [F: Phe]
Tt [1]: −45 °C
ΔG°HA(GχGVP) ([2]; DSC): −6.15 kcal/mol-pentamer

Substance: Ile [I: Ile]
Tt [1]: 10 °C
ΔG°HA(GχGVP) ([2]; DSC): −3.65 kcal/mol-pentamer

Substance: Pro [P: Pro]
Tt [1]: 40 °C
ΔG°HA(GχGVP) ([2]; DSC): −1.10 kcal/mol-pentamer

Substance: Asp(COOH) [D°: Asp(COOH)]
Tt [1]: 40 °C
ΔG°HA(GχGVP) ([2]; DSC): −0.40 kcal/mol-pentamer

Substance: His+ [H+: His+]
Tt [1]: 30 (Tt) ° C.
ΔG°HA(GχGVP) (from graph) [2]: −1.90 (from graph) kcal/mol-pentamer

Substance: (GVGIP) [pentamer polymer with a single CH2 added to GVGVP]
ΔGHA due to the addition of a single CH2 ([2]; DSC, difference of ΔHt(GVGVP) and ΔHt(GVGIP)): −1.5 kcal/mol-pentamer

Substance: [GVGVP GVGVP GΦGVP GVGVP GVGVP GVGVP]n(GVGVP) (GVGVPGVGVPGGVPGVGVPGVGVPGVGVPGVGVP) [E/0F]
(∂ΔG/∂α) slope [5]: 1.1 kcal/mol
ΔGgp (pKa shift) [5]: 0.7 kcal/mol
